Test results reported in patent US20050203067A1, “Pesticidal compositions and methods” (priority 2003, published 2005).
pEC50: −log10 of the molar value. In brackets after ≈: the same amount, converted by molar mass. Several values for one entry are separate records, joined by “and”; a condition that tells them apart may be missing. Equal entries are not always repeated. Where two headings read alike, the source gives them in different places.

What was measured:
Assay type in all cases: in vivo
C. elegans (strain N2) = assay: C. elegans contact assay (NGM-agar, 24-well)
C. elegans [1] = assay: C. elegans agar (plate) assay; conditions: Caenorhabditis elegans, read-out: Plate EC50
C. elegans [2] = assay: C. elegans liquid (well) assay; conditions: Caenorhabditis elegans, read-out: Well EC50
[3] = Caenorhabditis elegans, average number of adults in 4 replicate wells 96 hours after challenge, 20° C., read-out: EC50

| Compound | EC50 (C. elegans [1]; agar (plate) assay, 20° C.) [µg/mL] | EC50 (C. elegans [2]; liquid (well) assay, 20° C.) [µg/mL] | other results |
| --- | --- | --- | --- |
| CCNc1ccccc1 [Compound 3766, N-ethylaniline] |  |  | pEC50 (C. elegans (strain N2); [3]): 3.44 |
| O=S(=O)(F)CCn1nnc2ccccc21 [Compound 3745, 2-Benzotriazol-1-yl-ethanesulfonylfluoride] |  |  | pEC50 (C. elegans (strain N2); in vivo, read-out: EC50): 2.77 and 2.87 |
| CN(C)c1ccc(/N=N/c2ccccc2)cc1 [DC3783, Dimethyl-(4-phenylazo-phenyl)-amine] |  |  | EC50 (C. elegans [1]): 1.6 µg/mL (≈ 7.1 µM); EC50 (C. elegans [2]): 0.4 to 0.78 µg/mL (≈ 1.78 to 3.46 µM) |
| COc1ccc(NCCS(=O)(=O)F)cc1 [Compound 3736, 2-4-methoxy-phenylaminoethanesulfonyl fluoride] |  |  | pEC50 (C. elegans (strain N2); in vivo, read-out: EC50): 3.30 |
| CN(C)c1ccc(/N=N/c2ccc(NCCS(=O)(=O)F)cc2)cc1 [Compound 3767, 2-[4-(4-dimethylamino-phenylazo)-phenylamino]-ethanesulfonyl fluoride] |  |  | pEC50 (C. elegans (strain N2); Caenorhabditis elegans, 96 h): 5.15 |
| O=S(=O)(F)CCNc1ccccc1 [Compound 3754, 2-phenylaminoethanesulfonyl fluoride] |  |  | pEC50 (C. elegans (strain N2); in vivo, read-out: EC50): 3.03 and 3.24 |
| 2-[(4-phenylazo)phenylanilino]ethanesulfonamide [Compound 3770] |  |  | pEC50 (C. elegans (strain N2); average number of adults in 4 replicate wells 96 hours after challenge, 20° C., read-out: EC50): 4.70 |
| O=S(=O)(F)CCn1cnc2ccccc21 [Compound 3747, 2-Benzoimidazol-1-yl-ethanesulfonyl fluoride] |  |  | pEC50 (C. elegans (strain N2); in vivo, read-out: EC50): 2.85 |
| OCCNCc1ccccc1 [Compound 3702, 2-Benzylaminoethanol] |  |  | pEC50 (C. elegans (strain N2); [3]): 2.47 |
| O=C1CCC(=O)N1CCS(=O)(=O)F [Compound 3743, 2,5-Dioxo-1-pyrrolidineethanesulfonyl fluoride] |  |  | pEC50 (C. elegans (strain N2); in vivo, read-out: EC50): 2.89 |

Second part, led by results:

| EC50 (C. elegans [1]; agar (plate) assay, 20° C.) [µg/mL] | EC50 (C. elegans [2]; liquid (well) assay, 20° C.) [µg/mL] | Compound | other results |
| --- | --- | --- | --- |
| 1.6 (≈ 5.69 µM) | 0.8 to 1.6 (≈ 2.84 to 5.69 µM) | COc1ccc(/N=N/c2ccc3c(c2)CCCN3C)cc1 [DC3821, (4-Methoxy-phenyl)-(1-methyl-1,2,3,4-tetrahydro-quinolin-6-yl)-diazene] |  |
| > 100 | 6.3 to 12.5 (≈ 26.3 to 52.2 µM) | Cc1ccc(/N=N/c2ccc(N(C)C)cc2)cc1 [DC3785, Dimethyl-(4-p-tolylazo-phenyl)-amine] |  |
| > 100 | 3.2 to 6.3 (≈ 11.5 to 22.7 µM) | O=C1C=CC(=O)N1c1ccc(/N=N/c2ccccc2)cc1 [DC3792, 1-(4-Phenylazo-phenyl)-pyrrole-2,5-dione] |  |
|  | 12.5 (≈ 49.7 µM) | CN(C)c1ccc(/C=C/C(=O)c2ccccc2)cc1 [DC3901, 3-(4-Dimethylamino-phenyl)-1-phenyl-propenone] |  |
|  | 1.6 (≈ 7.04 µM) | O=[N+]([O-])c1ccc(N=Nc2ccccc2)cc1 [DC3898, (4-Nitro-phenyl)-phenyl-diazene] |  |
| 0.4 (≈ 1.54 µM) | 0.4 (≈ 1.54 µM) | CN(C)c1ccc(/N=N/c2cccc(Cl)c2)cc1 [DC3853, [4-(3-Chloro-phenylazo)-phenyl]-dimethyl-amine] |  |
|  | 12 (≈ 53.3 µM) | CN(C)c1ccc(C(=O)c2ccccc2)cc1 [DC3890, (4-Dimethylamino-phenyl)-phenyl-methanone] |  |
| 3.2 (≈ 13.2 µM) | 6.2 to 12.5 (≈ 25.6 to 51.6 µM) | CN(C)c1ccc(/N=N/c2ccccn2)c(O)c1 [DC3829, 5-Dimethylamino-2-(pyridin-2-ylazo)-phenol] |  |
| 1.6 (≈ 6.69 µM) | 1.5 to 3.1 (≈ 6.27 to 13 µM) | Cc1ccccc1/N=N/c1ccc(N(C)C)cc1 [DC3832, Dimethyl-(4-o-tolylazo-phenyl)-amine] |  |
| 6.3 (≈ 23 µM) | 3.2 to 6.3 (≈ 11.7 to 23 µM) | CC(=O)Nc1ccc(/N=N/c2ccccc2)cc1Cl [DC3796, N-(2-Chloro-4-phenylazo-phenyl)-acetamide] |  |
| 0.8 (≈ 2.42 µM) | 0.4 to 0.8 (≈ 1.21 to 2.42 µM) | CN1CCCc2cc(/N=N/c3ccc(Br)cc3)ccc21 [DC3819, (4-Bromo-phenyl)-(1-methyl-1,2,3,4-tetrahydro-quinolin-6-yl)-diazene] |  |
| 6.25 (≈ 25.7 µM) | 3.1 to 6.2 (≈ 12.7 to 25.5 µM) | O=[N+]([O-])c1ccc(/N=N/c2ccc(O)cc2)cc1 [DC3844, 4-(4-Nitro-phenylazo)-phenol] |  |
| 1.6 (≈ 6.69 µM) | 0.4 to 0.78 (≈ 1.67 to 3.26 µM) | Cc1cc(N(C)C)ccc1/N=N/c1ccccc1 [DC3787, Dimethyl-(3-methyl-4-phenylazo-phenyl)-amine] |  |
| 6.2 (≈ 17.3 µM) | 12.5 to 25 (≈ 34.9 to 69.8 µM) | O=C1CSC(=S)N1c1ccc(/N=N/c2ccc([N+](=O)[O-])cc2)cc1 [DC3833, 3-[4-(4-Nitro-phenylazo)-phenyl]-2-thioxo-thiazolidin-4-one] |  |
| 12.5 to 25 (≈ 55.2 to 110 µM) | 25 to 50 (≈ 110 to 221 µM) | CN(C)c1ccc(/N=N/c2ccccn2)cc1 [DC3791, Dimethyl-[4-(pyridin-2-ylazo)-phenyl]-amine] |  |
